Laboratory results published in patent US7390870B2, “Immune-enhancing peptides” (Posco, priority 2001, dated 2008).
No end group written: not given here.

Experiments:
human neutrophils = experiment: [Ca2+]i increase in human neutrophils (fura-2); format: cell-based; conditions: FIG. 4A; 1 μM peptide
Protocol: (§1) The level of [Ca^2+]i was determined by Grynkiewicz's method using fura-2/AM (21). Briefly, prepared cells were incubated with 3 μM fura-2/AM at 37° C. for 50 minutes in a fresh serum-free RPMI 1640 medium under continuous stirring. 2×10^6 cells were aliquoted for each assay in Ca^2+-free Locke's solution (154 mM NaCl, 5.6 mM KCl1.2 mM MgCl2, 5 mM HEPES, pH 7.3, 10 mM glucose, and 0.2 mM EGTA). The fluorescence changes at the dual excitation wavelengths of 340 nm and 380 nm and the emission wavelength of 500 nm were measured, and the calibrated fluorescence ratio was translated into [Ca^2+]i.
(§2) From the fact that HFYLPM, MFYLPM, and HFYLPm stimulate human monocytes, effects of the peptides on other leukocytes such as neutrophils were evaluated. Prepared human primary monocytes, neutrophils, cultured HL60, Jurkat, U937, NIH3T3, 3Y1, 3T3L1, and PC12 cells were loaded with fura-2 and stimulated with effective concentrations of the three peptides (1 μM for monocyte and neutrophil; 10 μM for HL60 and Jurkat; 20 μM for U937, NIH3T3, 3Y1, 3T3L1, and PC12). The peak level of the [Ca^2+]i increase was recorded and superoxide generation was measured using cytochrome c reduction assay. The results are shown FIG. 4. The data of FIG. 4 are presented as means ±S.E. from at least three independent experiments.

[1] = tested on: HL60 human promyelocytic cells; experiment: [Ca2+]i increase in undifferentiated HL60 cells (fura-2); format: cell-based
Protocol: as §1
From the fact that HFYLPM, MFYLPM, and HFYLPm stimulate human monocytes, effects of the peptides on other leukocytes such as neutrophils were evaluated. […] The peak level of the [Ca^2+]i increase was recorded and superoxide generation was measured using cytochrome c reduction assay. […]
(§3) A test where the three peptides on HL60 cells that had differentiated into granulocytes after having been cultured in the presence of 1.25% DMSO for 4 days was performed. […] The peak level of the [Ca^2+]i increase was recorded. […]

[2] = tested on: 3Y1 (Rat embryonic fibroblast); experiment: [Ca2+]i rise in 3Y1 cells (fura-2); format: cell-based; conditions: FIG. 4A; 20 μM peptide
Protocol: as §1, §2

3T3L1 (preadipocyte) = experiment: [Ca2+]i rise in 3T3L1 cells (fura-2); format: cell-based; conditions: FIG. 4A; 20 μM peptide
Protocol: as §1, §2

[3] = tested on: PC12 (rat adrenal pheochromocytoma); experiment: [Ca2+]i rise in PC12 cells (fura-2); format: cell-based; conditions: FIG. 4A; 20 μM peptide
Protocol: as §1, §2

[4] = tested on: differentiated HL60 cells; experiment: [Ca2+]i increase in differentiated HL60 cells (dHL60, granulocyte phenotype); format: cell-based, human; conditions: FIG. 5; various concentrations
Protocol: U937 (human histiocytic lymphoma cells), HL60 (human promyelocytic leukemia cells), Jurkat (human T cell leukemia cells), NIH3T3 (NIH Swiss mouse embryo fibroblasts), 3Y1 (Rat embryonic fibroblasts), 3T3L1 (preadipocytes), and PC12 (rat adrenal pheochromocytoma cells) were obtained from the American Type Culture Collection (Rockville, Md.) and maintained as re, commended. The cells were maintained at about 1×10^6 cells/ml under standard incubator conditions (humidified atmosphere, 95% air, 5% CO2, 37° C.). HL60 cells were induced to differentiate into the granulocyte phenotype by adding dimethylsulfoxide (DMSO) (final concentration 1.25%, v/v) for 4 days to the culture medium as has been described before (18).
as §1, with “2×10^6 cells were aliquoted for each assay in Ca^2+-free Locke's solution (154 mM NaCl, 5.6 mM KCl1.2 mM MgCl2, 5 mM HEPES, pH 7.3, 10 mM glucose, and 0.2 mM EGTA).” left out
as §3

[5] = tested on: fura-2-loaded differentiated HL60 cells; experiment: Cross-desensitization of [Ca2+]i increase between fMLF and the peptides; format: cell-based, human; conditions: HFYLPm 1 μM, HFYLPM and MFYLPM 10 μM
Protocol: as §1
Among various agonists, fMLF is known to cause superoxide production and [Ca^2+]i increase in phagocytic cells by binding to its specific receptor (7). To check whether the novel peptides can cross-desensitize the signaling by fMLF, the effect of fMLF on the novel peptides-induced [Ca^2+]i increase and vice versa was examined. […] The results of FIG. 6 shown are from one experiment that is representative of at least three independent experiments.
In FIG. 6, “Hm” means HFYLPm, “HM” means HFYLPM, and “MM” means MFYLPM. The concentrations used were 1 μM (HFYLPm and fMLF) and 10 μM (HFYLPM and MFYLPM). 340 nm/380 mn ratios in fluorescence were monitored on fura-2-loaded differentiated HL60 cells before and during sequential addition of agonists at the times indicated by the arrows.

monocytes = experiment: Receptor specificity: monocyte chemotaxis after preincubation with a peptide; format: cell-based, human; conditions: FIG. 9, preincubation 10 μM peptide 10 minutes
Protocol: Chemotaxis assays of the peptide were performed using multiwell chambers (Neuroprobe Inc., Gaithersburg, Md.) (20). Briefly, the prepared isolated human monocytes were suspended in RPMI at a concentration of 1×10^6 cells/ml of serum-free RPMI, and 25 □ of the suspension were placed onto the upper well of a 96-well chemotaxis chamber that was separated by a […] filter with a 5 □ pore size (3 □ diameter pores not coated with polyvinylpyrrolidone for neutrophils) from peptides or an fMLF-containing lower well. After incubation for 2 hours (90 minutes for neutrophils) at 37° C., non-migrated cells were removed by scraping them out, and cells that migrated across the filter were dehydrated, fixed, and stained with hematoxylin (Sigma, St. Louis, Mo.). The stained cells in five randomly chosen high power fields (HPF) (400×) in that well were then counted (21). The numbers of migrated cells were determined by counting them in a high power field (400×). For a checkboard analysis, cells were re-suspended in RPMI containing various concentrations of the peptide just before transferring them to the upper wells as described before (22).
The three peptides, HFYLPM, MFYLPM, and HFYLPm which have similar sequences, exerted similar effects on human leukocytes in that they stimulated superoxide generation and chemotactic migration involving PTX-sensitive G-protein(s). So an attempt to reveal whether the three peptides acted through the same or different receptor(s) was carried out. For this purpose, monocytes were preincubated with 10 μM of each peptide, HFYLPM, MFYLPM, or HFYLPm for 10 minutes at 37° C., or they remained untreated. After washing twice, the cells were used for chemotaxis assay. The cells were allowed to migrate towards the maximal effective concentrations of each peptide (1 μM HFYLPM, 1 μM MFYLPM, or 10 nM HFYLPm) or medium. After fixing and staining of the membrane, migrated cells were quantified microscopically. […]

Met-Phe-Tyr-Leu-Pro-Met-CONH2 (MFYLPM-NH2)
[Ca2+]i increase in neutrophils (human neutrophils): increase their [Ca^2+]i | [Ca2+]i increase in HL60 cells ([1]; FIG. 4A, HFYLPM up to 20 μM): caused a [Ca^2+]i increase | [Ca2+]i rise in undifferentiated HL60 cells ([1]; FIG. 5, various concentrations): stimulated both undifferentiated and differentiated HL60 cells | [Ca2+]i rise in 3Y1 cells [2]: no response | [Ca2+]i rise in 3T3L1 cells (3T3L1 (preadipocyte)): no response | [Ca2+]i rise in PC12 cells [3]: no response | [Ca2+]i rise in differentiated HL60 cells [4]: stimulated both undifferentiated and differentiated HL60 cells | desensitization to subsequent stimulation with the same peptide ([Ca2+]i) ([5]; FIG. 6): complete desensitization | block of the calcium response to a following saturating concentration of fMLF ([5]; FIG. 6 below, fMLF 1 μM): completely block | [Ca2+]i response to the peptide following a saturating concentration of fMLF ([5]; FIG. 6 upper, fMLF 1 μM): considerable responses | inhibition of HFYLPm-induced cell migration by preincubation with peptide (monocytes; migration towards 10 nM HFYLPm): no inhibition | inhibition of HFYLPm-induced cell migration by preincubation with peptide (monocytes; migration towards 1 μM HFYLPM): partial inhibition | inhibition of MFYLPM-induced cell migration by preincubation with peptide (monocytes; migration towards 1 μM MFYLPM): complete inhibition
